Laboratory results published in PubChem BioAssay AID330 (DTP/NCI, 2004).
Values joined by “and” are separate entries in the source; they are usually repeats but may differ in a detail not shown here. Identical values can stand only once. Toxic doses and inconclusive results are not listed. How the source made its calls: active means survival T/C of 150% or more; inactive means T/C below 125% in these data.

System: P388 leukemia ip, CD2F1 mice, survival T/C
Assay: NCI In Vivo Anticancer Drug Screen. Data for tumor model P388 Leukemia (intraperitoneal) in CD2F1 (CDF1) mice
Settings: endpoint: median survival time, higher = longer survival
How it was run: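 Mice carrying the transplanted tumor received test compound or vehicle. Survival was recorded in each group, and the value is the treated-group measurement divided by that of the vehicle-treated control group.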

[1] = dose: 50.0 mg/kg/injection, schedule: Q01DX005 (ip), vehicle: saline with Tween-80
[2] = dose: 200.0 mg/kg/injection, schedule: Q01DX005 (ip), vehicle: saline with Tween-80
[3] = dose: 60.0 mg/kg/injection, schedule: Q01DX005 (ip), vehicle: saline with Tween-80
[4] = dose: 120.0 mg/kg/injection, schedule: Q01DX005 (ip), vehicle: saline with Tween-80
[5] = dose: 240.0 mg/kg/injection, schedule: Q01DX005 (ip), vehicle: saline with Tween-80
[6] = dose: 6.25 mg/kg/injection, schedule: Q01DX009 (ip), vehicle: water
[7] = dose: 12.5 mg/kg/injection, schedule: Q01DX009 (ip), vehicle: water
[8] = dose: 25.0 mg/kg/injection, schedule: Q01DX009 (ip), vehicle: water
[9] = dose: 50.0 mg/kg/injection, schedule: Q01DX009 (ip), vehicle: water
[10] = dose: 25.0 mg/kg/injection, schedule: Q01DX005 (ip), vehicle: Klucel (hydroxypropylcellulose) (HPC)
[11] = dose: 50.0 mg/kg/injection, schedule: Q01DX005 (ip), vehicle: Klucel (hydroxypropylcellulose) (HPC)
[12] = dose: 100.0 mg/kg/injection, schedule: Q01DX005 (ip), vehicle: Klucel (hydroxypropylcellulose) (HPC)
[13] = dose: 200.0 mg/kg/injection, schedule: Q01DX005 (ip), vehicle: Klucel (hydroxypropylcellulose) (HPC)
[14] = dose: 100.0 mg/kg/injection, schedule: Q04DX003 (ip), vehicle: saline
[15] = dose: 200.0 mg/kg/injection, schedule: Q04DX003 (ip), vehicle: saline
[16] = dose: 400.0 mg/kg/injection, schedule: Q04DX003 (ip), vehicle: saline

Measured: T/C

CC(=O)OC1CC2C(=[N+]=[N-])C(=O)C1(C)C2(C)C (centres undefined)
inactive: [1] 108 % of control | dose: 100.0 mg/kg/injection, schedule: Q01DX005 (ip), vehicle: saline with Tween-80 107 % of control | [2] 108 % of control

O=C1C(Cl)=C(Cl)C(=O)c2ccccc21
inactive: dose: 5.0 mg/kg/injection, schedule: Q01DX009 (ip), vehicle: saline with Tween-80 109 % of control | dose: 5.0 mg/kg/injection, schedule: Q04DX003 (ip), vehicle: saline with Tween-80 100 % of control | dose: 10.0 mg/kg/injection, schedule: Q01DX009 (ip), vehicle: saline with Tween-80 109 % of control | dose: 10.0 mg/kg/injection, schedule: Q04DX003 (ip), vehicle: saline with Tween-80 100 % of control | dose: 20.0 mg/kg/injection, schedule: Q01DX009 (ip), vehicle: saline with Tween-80 109 % of control | dose: 20.0 mg/kg/injection, schedule: Q04DX003 (ip), vehicle: saline with Tween-80 95 % of control

O=c1c2ccccc2c2nccn2c2ccccc12
inactive: [3] 90 % of control | [4] 90 % of control | [5] 96 % of control

C=CCn1c(SC)nc2c(c1=O)CCCC2
inactive: [3] 108 % of control | [4] 97 % of control

O=C(NC(O)C(Cl)(Cl)Cl)c1ccccc1 (centres undefined)
inactive: dose: 12.5 mg/kg/injection, schedule: Q01DX005 (ip), vehicle: saline with Tween-80 95 % of control | dose: 25.0 mg/kg/injection, schedule: Q01DX005 (ip), vehicle: saline with Tween-80 102 % of control | [1] 100 % of control | [2] 96 % of control

O=NNc1cncc(Cl)n1
inactive: dose: 3.12 mg/kg/injection, schedule: Q01DX009 (ip), vehicle: water 100 % of control | [6] 97 % of control | [7] 105 % of control | [8] 99 % of control | [9] 92 % of control and 97 % of control

O=C(NS(=O)(=O)Cl)Oc1ccc(Cl)cc1C(=O)Oc1ccc(Cl)cc1
inactive: dose: 60.0 mg/kg/injection, schedule: Q01DX005 (ip), vehicle: Klucel (hydroxypropylcellulose) (HPC) 90 % of control | dose: 120.0 mg/kg/injection, schedule: Q01DX005 (ip), vehicle: Klucel (hydroxypropylcellulose) (HPC) 93 % of control | dose: 240.0 mg/kg/injection, schedule: Q01DX005 (ip), vehicle: Klucel (hydroxypropylcellulose) (HPC) 86 % of control

C=C(CCCC)C(=O)OC
inactive: dose: 50.0 mg/kg/injection, schedule: Q01DX009 (ip), vehicle: saline with Tween-80 102 % of control | dose: 100.0 mg/kg/injection, schedule: Q01DX009 (ip), vehicle: saline with Tween-80 111 % of control | dose: 200.0 mg/kg/injection, schedule: Q01DX009 (ip), vehicle: saline with Tween-80 108 % of control

O=C(O)c1cn2cccnc2n1
inactive: dose: 100.0 mg/kg/injection, schedule: Q01DX001 (ip), vehicle: Klucel (hydroxypropylcellulose) (HPC) 100 % of control | dose: 200.0 mg/kg/injection, schedule: Q01DX001 (ip), vehicle: Klucel (hydroxypropylcellulose) (HPC) 98 % of control | dose: 400.0 mg/kg/injection, schedule: Q01DX001 (ip), vehicle: Klucel (hydroxypropylcellulose) (HPC) 99 % of control

CC1CN(c2ccc(Cl)cc2)CCOC(=O)O1 (centres undefined)
inactive: dose: 100.0 mg/kg/injection, schedule: Q01DX001 (ip), vehicle: saline with Tween-80 92 % of control | dose: 200.0 mg/kg/injection, schedule: Q01DX001 (ip), vehicle: saline with Tween-80 95 % of control | dose: 400.0 mg/kg/injection, schedule: Q01DX001 (ip), vehicle: saline with Tween-80 92 % of control

CC1(C)CCCC2=C1C(=O)N(SC(Cl)(Cl)Cl)C2=O
inactive: dose: 12.5 mg/kg/injection, schedule: Q01DX005 (ip), vehicle: Klucel (hydroxypropylcellulose) (HPC) 102 % of control | [10] 121 % of control | [11] 121 % of control and 123 % of control | [12] 122 % of control

CCN(CC)P1(=O)C=C(C)C2C1C1C=C(C)C2P1(=O)N(CC)CC (centres undefined)
inactive: dose: 60.0 mg/kg/injection, schedule: Q01DX005 (ip), vehicle: saline 108 % of control | dose: 120.0 mg/kg/injection, schedule: Q01DX005 (ip), vehicle: saline 101 % of control | dose: 240.0 mg/kg/injection, schedule: Q01DX005 (ip), vehicle: saline 102 % of control

CCOC(=O)c1n[nH]c(=S)[nH]c1=O
inactive: [11] 104 % of control | [12] 108 % of control | [13] 101 % of control

CC1CN(Cc2ccccc2O)CC(C)N1 (centres undefined)
inactive: [6] 90 % of control | [7] 93 % of control | [8] 106 % of control | [9] 91 % of control | dose: 100.0 mg/kg/injection, schedule: Q01DX009 (ip), vehicle: water 94 % of control

NC(=O)C(F)(F)C(F)(F)C(N)=O
inactive: [3] 107 % of control | [4] 112 % of control | [5] 104 % of control

c1ccc2c(c1)[nH]c1c2nc2ccccn21
inactive: [10] 105 % of control and 107 % of control | [11] 105 % of control and 108 % of control and 113 % of control | [12] 124 % of control

COc1ccc2c3c(c(=O)n(C)c2c1OC)C=CC(C)(C)O3
inactive: [10] 94 % of control | [11] 100 % of control | [12] 100 % of control | [13] 88 % of control

CCCCCCCCCCCC1(O)OC(=O)C(C)=C1C (centres undefined)
inactive: dose: 12.5 mg/kg/injection, schedule: Q04DX003 (ip), vehicle: saline with Tween-80 101 % of control | dose: 25.0 mg/kg/injection, schedule: Q04DX003 (ip), vehicle: saline with Tween-80 108 % of control | dose: 50.0 mg/kg/injection, schedule: Q04DX003 (ip), vehicle: saline with Tween-80 103 % of control

NC(=O)CC[n+]1cccc(C(=O)O)c1
inactive: [14] 100 % of control | [15] 95 % of control | [16] 95 % of control

COc1cc2c(cc1OC)C(C1c3cc(OC)c(OC)cc3-c3c(OC)c(OC)cc4c3C1N(C)CC4)C1c3c(cc(OC)c(OC)c3-2)CCN1C (centres undefined)
inactive: [14] 99 % of control | [15] 100 % of control | [16] 97 % of control

Cc1c2oc3c(C)ccc(C(=O)OCCN4CCOCC4)c3nc-2c(C(=O)OCCN2CCOCC2)c(N)c1=O
inactive: dose: 3.13 mg/kg/injection, schedule: Q01DX009 (ip), vehicle: saline with Tween-80 112 % of control | dose: 6.25 mg/kg/injection, schedule: Q01DX009 (ip), vehicle: saline with Tween-80 110 % of control | dose: 12.5 mg/kg/injection, schedule: Q01DX009 (ip), vehicle: saline with Tween-80 119 % of control | dose: 25.0 mg/kg/injection, schedule: Q01DX009 (ip), vehicle: saline with Tween-80 111 % of control

CCOC(=O)C(/C=N/NS(=O)(=O)c1ccc(C)cc1)c1ccccc1 (centres undefined)
inactive: dose: 100.0 mg/kg/injection, schedule: Q04DX002 (ip), vehicle: saline 96 % of control | dose: 200.0 mg/kg/injection, schedule: Q04DX002 (ip), vehicle: saline 94 % of control | dose: 400.0 mg/kg/injection, schedule: Q04DX002 (ip), vehicle: saline 97 % of control

O=C(CI)Nc1cccc(C(=O)O)c1O
inactive: dose: 12.5 mg/kg/injection, schedule: Q01DX009 (ip), vehicle: Klucel (hydroxypropylcellulose) (HPC) 101 % of control | dose: 25.0 mg/kg/injection, schedule: Q01DX009 (ip), vehicle: Klucel (hydroxypropylcellulose) (HPC) 113 % of control | dose: 50.0 mg/kg/injection, schedule: Q01DX009 (ip), vehicle: Klucel (hydroxypropylcellulose) (HPC) 99 % of control
